Here are results for one molecule from paper PMC6633864, “Intestinal Absorption Profile of Three Polygala Oligosaccharide Esters in Polygalae Radix and the Effects of Other Components in Polygalae Radix on Their Absorption” (Evidence-based Complementary and Alternative Medicine : eCAM, 2019).

Data set [1] can be described thus: Intestinal absorption in vitro by the everted rat gut sac model. Format: in vitro ADME. The settings on record: n = 5.
Data set [2] can be described thus: Drug stability in blank intestinal circulation fluid. As to conditions: 37°C, 3 h. Format: in vitro ADME, rat. As to the method:
The K–R culture solution was circulated in rat intestines for 3 h. PRE, SA5, SA6, and DISS were dissolved in the blank intestinal circulation fluid at concentrations of 12 mg/ml, 0.050 mg/ml, 0.086 mg/ml, and 0.198 mg/ml, respectively, and incubated at 37°C for 3 h. Aliquots of 1 ml samples were taken out at 0, 0.5, 1, 2, and 3 h after preparation for analysis.

Details of data set [3]: method as in PMID 24043590. The settings on record: cited from earlier work.
Where [4] appears, read: in PRE, high concentration (SA5 0.075, SA6 0.130, DISS 0.296 mg/ml), 180 min.
Where [5] appears, read: in PRE, low concentration (SA5 0.025, SA6 0.043, DISS 0.099 mg/ml), 180 min.
Where [6] appears, read: monomer, high concentration (SA5 0.075, SA6 0.130, DISS 0.296 mg/ml).
The mark [7] stands for this setting: monomer, low concentration (SA5 0.025, SA6 0.043, DISS 0.099 mg/ml).

For the molecule `COc1cc(/C=C/C(=O)OC[C@H]2O[C@H](O[C@]3(CO)O[C@H](CO)[C@@H](O)[C@@H]3OC(=O)/C=C/c3cc(OC)c(O)c(OC)c3)[C@H](O)[C@@H](O)[C@@H]2O)cc(OC)c1O` [DISS, 3,6′-disinapoyl sucrose], in data set [1] (setting [4]), the K a is reported as 0.109 ± 0.010 ^∗∗,## μg·cm^−2·min^−1, the “P (%) percentage of absorption” value is 2.54 ± 0.19% and the P app was 0.61 ± 0.057 ×10^−5cm/s. For the same molecule, in data set [1] (setting [5]), the K a is 0.036 ± 0.0019 μg·cm^−2·min^−1, the “P (%) percentage of absorption” value was 2.55 ± 0.03% and the P app is 0.61 ± 0.0033 ×10^−5cm/s. In data set [1] (setting [6]), the K a is 0.049 ± 0.022 ^∗∗##, μg·cm^−2·min^−1; the “P (%) percentage of absorption” value came to 1.18 ± 0.04%; the P app is given as 0.28 ± 0.079 ×10^−5cm/min. In data set [1] (setting [7]), the K a turned out to be 0.015 ± 0.0005 μg·cm^−2·min^−1, the “P (%) percentage of absorption” value turned out to be 1.13 ± 0.05% and the P app is reported as 0.26 ± 0.068 ×10^−5cm/min. Further, in data set [2], the “stability in the blank intestinal circulation solution (in words)” value was “stable at 37 °C for 3 h”. Further, in data set [3], the “effect of ATP energy inhibitor sodium azide on absorption” value is reported as “no effect”; the “effect of P-gp inhibitor cyclosporine A on absorption” value is “no significant effect”; the “effect of paracellular enhancers EDTA and sodium caprate (SC) on Papp” value is given as “could increase Papp”.
